For orientation: inhibition means the drop in the measured response relative to a control, in per cent. High values mean a response far below the control, low ones a response near the control.

The target of this assay is T1, UDP-galactopyranose mutase (Escherichia coli K-12) (UniProt P37747).
T1 sequence (whole entry): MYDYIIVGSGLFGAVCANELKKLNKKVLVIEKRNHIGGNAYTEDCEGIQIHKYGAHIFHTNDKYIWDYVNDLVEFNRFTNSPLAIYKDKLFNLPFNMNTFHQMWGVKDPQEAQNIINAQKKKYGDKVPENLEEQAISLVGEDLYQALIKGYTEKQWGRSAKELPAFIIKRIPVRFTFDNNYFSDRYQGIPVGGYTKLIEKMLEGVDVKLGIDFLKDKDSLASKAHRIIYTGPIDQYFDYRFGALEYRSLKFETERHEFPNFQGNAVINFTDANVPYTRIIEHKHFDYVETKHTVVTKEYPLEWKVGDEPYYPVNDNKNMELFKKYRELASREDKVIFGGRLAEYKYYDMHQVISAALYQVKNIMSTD
The experiment in a line: Inhibition of Escherichia coli UDP galactopyranose mutase at 25 mM.
For the compound `O=C1CC[C@H]2[C@H](O)[C@@H](O)[C@H]([C@H](O)CO)N12`, the inhibition was < 50%.

Consider `OC[C@@H](O)[C@H]1[C@H](O)[C@@H](O)[C@@H]2CCCN12`, for which the inhibition is < 50%.

Consider `CCOC(=O)CC[C@@H]1N[C@@H]([C@H](O)CO)[C@H](O)[C@H]1O`, for which the inhibition is < 50%.

(Values after ChEMBL document CHEMBL1143760, “Stereoselective synthesis of beta-1-C-substituted 1,4-dideoxy-1,4-imino-D-galactitols and evaluation as UDP-galactopyranose mutase inhibitors” (Bioorg Med Chem, 2007).)
